Assay results from US5753661A, “Fused benzo compounds containing a nitrogen heterocycle for the treatment of central nervous system disorders” (priority 1992, dated 1998).

Legend:
5-HT1A = conditions: cited from earlier work
5-HT1A receptor [1] = molecular target: T1, 5-HT1A receptor (Rattus norvegicus, UniProt P19327); test: Antagonism of the discriminative stimulus properties induced by 8-OH-DPAT in rats (8-OH-DPAT cue); assay type: in vivo, rat (male Wistar); design: from tissue; host or cells: living male Wistar rat (in vivo, endogenous receptor); conditions: sc, before 8-OH-DPAT 0.4 mg/kg i.p.
T1 sequence (P19327 1-422): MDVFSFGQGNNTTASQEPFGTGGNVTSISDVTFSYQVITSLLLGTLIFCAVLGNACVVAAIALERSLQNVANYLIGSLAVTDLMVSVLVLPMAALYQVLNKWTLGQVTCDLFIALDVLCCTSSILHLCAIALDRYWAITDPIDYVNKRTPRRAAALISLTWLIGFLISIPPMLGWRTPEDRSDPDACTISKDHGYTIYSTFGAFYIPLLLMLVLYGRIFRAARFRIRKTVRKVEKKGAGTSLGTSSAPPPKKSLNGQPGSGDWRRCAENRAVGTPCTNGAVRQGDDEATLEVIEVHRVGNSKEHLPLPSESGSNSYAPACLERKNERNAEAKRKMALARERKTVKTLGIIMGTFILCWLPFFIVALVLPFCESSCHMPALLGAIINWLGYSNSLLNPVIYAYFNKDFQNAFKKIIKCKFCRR
Description: Antagonism of the Discriminative Stimulus Properties Induced by 8-OH-DPAT in Rats.
This test is used to determine the 5-HT1A receptor antagonistic effect of a test compound in vivo. A related method is described by Tricklebank, M. D., et al, Eur. J. Pharmacol, 1987, 133, 47-56; Amt, J. Pharmacology & Toxicology, 1989, 64, 165.
Male Wistar rats are trained to discriminate between 8-OH-DPAT (0.4 mg/kg, i.p., 15 min pretreatment) and physiological saline in operant chambers equipped with two response levers. Between the levers a dipper is placed, where water rewards (0.1 ml) are presented. The rats are water deprived for at least 24 h and work in a fixed ratio (FR) schedule (final FR=32).
Following 8-OH-DPAT administration, responding is reinforced only on a designated (drug) lever, whereas responding on the opposite lever has no consequences. Following saline administration, responding is reinforced on the lever opposite to the drug lever. Drug and saline trials alternate randomly between days. The level of discrimination accuracy is expressed as the per cent drug responses and is calculated as the number of correct responses ×100 divided by the sum of the correct and incorrect responses before the first reward. The time to the first reward is also recorded as a measure of reaction time. When stable accuracy (mean correct responding=90%; individual rats at least 75% correct responding) is obtained test sessions are included between training days. Test compound is injected s.c. or p.o. at appropriate time before 8-OH-DPAT and the test begins 15 min after 8-OH-DPAT injection. The test trial is terminated when a total of 32 responses are made on either lever or when 20 min have elapsed. No reward is given and the rats have free access to water for 20-30 min after the test. The effects are expressed as per cent inhibition of drug responding. Only results from rats making at least 10 responses on one lever are included in data analysis. Furthermore, only test sessions in which at least half of the rats respond are included.
The per cent inhibition of drug response obtained for each dose of test compound is used to calculate ED50 values by log-probit analysis.

5-HT1A receptor [2] = molecular target: T1, 5-HT1A receptor; test: Generalization to the discriminative stimulus properties induced by 8-OH-DPAT in rats (8-OH-DPAT cue, agonism); assay type: in vivo, rat (male Wistar); design: from tissue; host or cells: living male Wistar rat (in vivo, endogenous receptor); conditions: for agonist activity/efficacy in words, 8-OH-DPAT cue: 8-OH-DPAT cue model, s.c.; for ED50: rat, sc, usually 30 or 45 min before test
Excerpt: Generalization to the Discriminative Stimulus Properties Induced by 8-OH-DPAT in Rats
This test is used to determine the 5-HT1A receptor agonistic effect of a test compound in vivo. A related method is described by Tricklebank, M. D., supra; Amt, J. Pharmacology & Toxicology, 1989, 64, 165.
The per cent drug responce obtained for each dose of test compound is used to calculate ED50 values by log-probit analysis.

5-HT1A receptor [3] = molecular target: T1, 5-HT1A receptor; test: Inhibition of 3H-8-OH-DPAT binding to serotonin 5-HT1A receptors in rat brain in vitro; design: 5-HT1A receptors in membranes from rat brain minus cerebellum; from tissue; host or cells: rat brain minus cerebellum, membranes; conditions: 3H-8-OH-DPAT 1 nM; membranes from rat brain minus cerebellum; read-out: IC50, 3H 8-OH-DPAT binding
Description: Inhibition of ^3 H-8-OH-DPAT Binding to Serotonin 5-HT1A Receptors in Rat Brain in vitro.
By this method the inhibition by drugs of the binding of the 5-HT1A agonist 3H-8-OH-DPAT (1 nM) to 5-HT1A receptors in membranes from rat brain minus cerebellum is determined in vitro . Accordingly, this is a test for affinity for the 5-HT1A receptor. The assay was performed as described by Hyttel et al., Drug Dev. Res. 1988, 15, 389-404.

5-HT1A receptor [4] = molecular target: T1, 5-HT1A receptor; test: Inhibition of 5-MeO-DMT-induced 5-HT syndrome in rats; assay type: in vivo, rat (male Wistar); design: Male Wistar rats (Mol:Wist) weighing 170-240 g are used; from tissue; host or cells: living male Wistar rat (Mol:Wist) (in vivo, endogenous receptor); conditions: sc, 5-MeO-DMT 5 mg/kg s.c., inhibition of piano playing
Excerpt: Inhibition of 5-MeO-DMT-Induced 5-HT Syndrome in Rats
The so-called 5-HT syndrome is a characteristic pattern of behaviours which are induced by 5-HT agonists with effects on 5-HT, possibly 5-HT1A receptors (Smith, L. M. and Peroutka, S. J., Pharmacol. Biochem. & Behaviour, 1986, 24, 1513; Tricklebank, M. et al, Eur. J. Pharmacol. 1985, 117, 15). This test is a test for determining the antagonist effects of a test compound on 5-HT1A receptors in vivo by measuring the ability to inhibit 5-MeO-DMT induced 5-HT syndrome.
Male Wistar rats (Mol:Wist) weighing 170-240 g are used. Test substance is injected s.c. before 5-MeO-DMT 5 mg/kg, s.c. Four rats are used for each dose. A control group pretreated with saline is included each test day. 10, 15 and 20 min later the rats are observed for presence of serotonin (5-HT) syndrome. The following symptoms are recorded: 1) forepaw treading ("piano playing"), 2) head weaving and 3) hindleg abduction. Furthermore, flat motility is scored. Each part of the syndrome is scored as follows: marked effect (score 2), weak syndrome (score 1) and no effect (score 0). The scores of the three observation periods are added. Thus the maximum obtainable score for four rats is 24. The effect of the test substance is expressed as percent inhibition relative to the control group.
The percent inhibition of the piano playing syndrome is used as the response and ED50 value are calculated by log-probit analysis.

Row | SMILES | 5-HT1A agonist activity, in words (5-HT1A) | ED50 (5-HT1A receptor [1]) [µmol/kg] | agonist activity/efficacy in words, 8-OH-DPAT cue (5-HT1A receptor [2]) | response, 8-OH-DPAT cue agonism (5-HT1A receptor [2]; at 0.04-10 μmol/kg, s.c. (note a)) | IC50 (5-HT1A receptor [3]) [µM] | ED50 (5-HT1A receptor [4]) [µmol/kg] | ED50 (5-HT1A receptor [2]) [µmol/kg] | antidepressant and anxiolytic effects, in words (5-HT1A; Schipper et al, Human Psychopharm., 1991) | response, 8-OH-DPAT cue agonism (5-HT1A receptor [2]; at 0.6-2.4 μmol/kg, s.c. (note c))
1 | O=C1CC2(CCCC2)CC(=O)N1CCCCN1CCN(c2ncccn2)CC1 [Buspirone, 8-[4-[4-(2-pyrimidyl)-1-piperazinyl]butyl]-8-azaspiro[4,5]decane-7,9-dione] | 5-HT1A partial agonists | – | – | – | – | – | – | – | –
2 | CC(C)S(=O)(=O)CCCN1CCN(c2cccc3c2OCCO3)CC1 [Compound 1e, 1-(1,4-Benzodioxan-5-yl)-4-(3-isopropylsulfonyl-1-propyl)piperazine] | – | > 10 | partial agonist | 30-75% | 0.023 | 5.1 | – | – | –
3 | O=S(=O)(CCCN1CCN(c2cccc3c2OCCO3)CC1)C1CCCCC1 [Compound 1a, 1-(1,4-Benzodioxan-5-yl)-4-(3-cyclohexylsulfonyl-1-propyl)piperazine] | – | > 0.62 | – | – | 0.0026 | 2.3 | 0.034 | – | –
4 | CC(C)N1CCN(CCN2CCN(c3cccc4c3OCCO4)CC2)C1=O [Compound 2o, 1-[2-[4-(1,4-Benzodioxan-5-yl)-1-piperazinyl]ethyl]-3-isopropyl-2-imidazolidinone] | – | 23 | – | – | 0.051 | 9 | 27 | – | –
5 | O=C1N(CCCN2CCN(c3cccc4c3OCC4)CC2)CCN1c1ccccc1 [Compound 2g, 1-[3-[4-(2,3-Dihydrobenzofuran-7-yl)-1-piperazinyl]-1-propyl]-3-phenyl-2-imidazolidinone] | – | > 11 | – | – | 0.037 | 10 | 1.6 | – | –
6 | O=C1N(CCN2CCN(c3cccc4c3OCCO4)CC2)CCN1C1CCCC1 [Compound 2b, 1-[2-[4-(1,4-Benzodioxan-5-yl)-1-piperazinyl]ethyl]-3-cyclopentyl-2-imidazolidinone] | – | 2.7 | – | – | 0.018 | 8.9 | > 11 | – | –
7 | O=C1N(CCN2CCN(c3cccc4c3OCCO4)CC2)CCN1c1ccccc1 [Compound 2c, 1-[2-[4-(1,4-Benzodioxan-5-yl)-1-piperazinyl]ethyl]-3-phenyl-2-imidazolidinone] | – | > 2.6 | – | – | 0.013 | 15 | 0.76 | – | –
8 | O=C1N(CCCN2CCN(c3cccc4c3OCCO4)CC2)CCN1c1ccccc1 [Compound 2a, 1-[3-[4-(1,4-Benzodioxan-5-yl)-1-piperazinyl]-1-propyl]-3-phenyl-2-imidazolidinone] | – | > 11 | – | – | 0.016 | 6.6 | 3.1 | – | –
9 | O=C(NCCN1CCN(c2cccc3c2OCC(CO)O3)CC1)c1ccc(F)cc1 (stereo not shown) [Flesinoxane, 4-fluoro-N-[2-(4-(2-hydroxymethyl-1,4-benzodioxan-5-yl)piperazine-1-yl)ethyl]benzamide, reference compound] | high efficacy 5-HT1A agonist | – | – | – | 0.004 | > 44 | 0.38 | antidepressant and anxiolytic effects | –
10 | O=C1N(CCCCN2CCN(c3cccc4c3OCCO4)CC2)CCN1C1CCCCC1 [Compound 2e, 1-[4-[4-(1,4-Benzodioxan-5-yl)-1-piperazinyl]-1-butyl]-3-cyclohexyl-2-imidazolidione] | – | 6.1 | partial agonist | – | 0.00045 | 4.7 | – | – | 20-60%
